Read-outs that look alike come from different tables or passages of the source.
What was measured:
[1] = system: Abeta oligomer-induced membrane trafficking deficits in primary hippocampal neurons; assay: Membrane Trafficking/Exocytosis (MTT) assay, Abeta oligomer effect on neurons; type: cell-based, rat; conditions: membrane trafficking, read-out: EC50 Abeta;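 also: compound potency for inhibiting the Abeta oligomer effect on exocytosis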
How it was run: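 Rat E18 hippocampal neurons cultured 3 weeks received compound (100 uM to 0.001 nM), then vehicle or Abeta 1-42 oligomers (3 μM total Abeta), for 1-24 h at 37 °C. MTT was added for 1 h, and formazan vesicle exocytosis was quantified by automated imaging with DAPI toxicity check. Tukey-Kramer comparisons were made with N=4.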

[2] = Mouse liver microsome (MLM) stability; type: in vitro ADME; conditions: microsomal stability in mouse liver microsomes (MLM)
Description: A first pharmacokinetic study was performed in microsomes of mice mouse liver microsomes, MLM).
Microsomal stability experiments and plasma stability experiments were performed to determine metabolic and hepatic stability of candidate compounds.

[3] = log P; type: physicochemical; conditions: for logP: octanol/water
How it was run: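 Ratio of un-ionized compound concentrations between octanol and water, with aqueous pH set so the un-ionized form predominates. Value given as the log of the octanol/water ratio.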

[4] = target: potassium channel hERG (Homo sapiens (Human), UniProt Q12809); assay: In vitro testing for hERG inhibition; type: biochemical; conditions: in vitro toxicity potassium channel hERG
Sequence of potassium channel hERG (Q12809 whole entry): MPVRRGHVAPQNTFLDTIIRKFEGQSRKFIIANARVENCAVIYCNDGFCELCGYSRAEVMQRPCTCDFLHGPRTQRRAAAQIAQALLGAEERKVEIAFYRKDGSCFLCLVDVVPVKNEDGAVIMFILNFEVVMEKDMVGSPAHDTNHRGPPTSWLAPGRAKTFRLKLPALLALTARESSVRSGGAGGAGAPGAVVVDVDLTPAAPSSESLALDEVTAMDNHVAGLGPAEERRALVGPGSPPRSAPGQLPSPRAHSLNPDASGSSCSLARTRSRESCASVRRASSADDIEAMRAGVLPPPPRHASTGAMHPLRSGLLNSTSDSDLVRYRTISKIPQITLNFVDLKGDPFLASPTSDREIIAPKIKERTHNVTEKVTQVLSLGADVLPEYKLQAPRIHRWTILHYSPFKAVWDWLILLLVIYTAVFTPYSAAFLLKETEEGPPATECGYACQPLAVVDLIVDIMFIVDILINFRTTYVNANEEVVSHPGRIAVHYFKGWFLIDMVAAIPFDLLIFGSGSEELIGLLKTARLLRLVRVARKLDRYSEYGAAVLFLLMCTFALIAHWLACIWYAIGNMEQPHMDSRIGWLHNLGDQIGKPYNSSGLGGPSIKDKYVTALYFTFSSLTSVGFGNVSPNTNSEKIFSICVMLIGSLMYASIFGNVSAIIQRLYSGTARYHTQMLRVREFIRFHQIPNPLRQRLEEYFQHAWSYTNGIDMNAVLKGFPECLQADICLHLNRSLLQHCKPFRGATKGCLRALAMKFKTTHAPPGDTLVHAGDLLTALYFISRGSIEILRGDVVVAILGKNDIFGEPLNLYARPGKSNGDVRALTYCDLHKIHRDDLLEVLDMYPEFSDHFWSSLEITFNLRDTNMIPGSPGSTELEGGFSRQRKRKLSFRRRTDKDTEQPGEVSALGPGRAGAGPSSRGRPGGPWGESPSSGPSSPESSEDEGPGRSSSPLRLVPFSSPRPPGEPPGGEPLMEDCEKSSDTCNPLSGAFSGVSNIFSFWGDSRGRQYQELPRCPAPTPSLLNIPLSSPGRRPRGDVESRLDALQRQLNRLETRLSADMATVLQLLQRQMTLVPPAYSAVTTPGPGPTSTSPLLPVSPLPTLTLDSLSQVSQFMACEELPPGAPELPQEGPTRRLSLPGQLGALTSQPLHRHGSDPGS
Description: In vitro testing for hERG inhibition was performed in a standard assay (See: Haverkamp W, Breithardt G, Carnm A J, Janse M J, Rosen M R, Antzelevitch C, Escande D, Franz M, Malik M, Moss A and Shah R. (2000) Eur Heat J 21 (15); 1216-31).

[5] = target: Sigma-2 receptors on membranes from rat cerebral cortex (Rattus norvegicus (Rat), UniProt Q5U3Y7); assay: Competitive Radioligand Binding Assay 1, Sigma-2 binding ([3H]DTG displacement with (+)pentazocine mask); conditions: sigma-2 receptor affinity; read-out: S2 Ki
Sequence of Sigma-2 receptors on membranes from rat cerebral cortex (Q5U3Y7 whole entry): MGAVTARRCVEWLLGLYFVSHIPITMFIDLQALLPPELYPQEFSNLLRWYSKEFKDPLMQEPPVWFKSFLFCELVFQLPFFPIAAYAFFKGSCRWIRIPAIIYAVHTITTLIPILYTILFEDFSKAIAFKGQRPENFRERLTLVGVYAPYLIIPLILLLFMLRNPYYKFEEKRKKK
Description: Using the same protocol, some compounds for which membrane trafficking data are given in Table 1 were tested for recognition of sigma-2 receptor. Certain compounds preferentially bind to the sigma-2 receptor.
(§1) For Sigma-1 binding, various concentrations of test compounds from 100 μM to 1 nM were used to displace 8 nM [3H](+)pentazocine from endogenous receptors on Jurkat cell membranes (Ganapathy M E et al. 1991, J Pharmacol. Exp. Ther. 289:251-260). 10 μM Haloperidol was used to define non-specific binding. […] (Bowen W D, et al. 1993, Mol. Neuropharmcol 3:117-126). 10 μM Haloperidol was used to define non-specific binding. Reactions were terminated by rapid filtration through Whatman GF/C filters using a Brandel 12R cell harvester followed by two washes with ice-cold buffer. Radioactivity on the dried filter discs was measured using a liquid scintillation analyzer (Tri-Carb 2900TR; PerkinElmer Life and Analytical Sciences). The displacement curves were plotted and the Ki values of the test compounds for the receptor subtypes were determined using GraphPad Prism (GraphPad Software Inc., San Diego, Calif.). The percentage specific binding was determined by dividing the difference between total bound (disintegrations per minute) and nonspecific bound (disintegrations per minute) by the total bound (disintegrations per minute).
Affinities for Sigma-1 and Sigma-2 receptors are typically obtained from published studies using cerebral tissue homogenates with [3H](+)pentazocine to measure displacement from Sigma-1 receptors and [3H] 1,3-Di-(2-tolyl)guanidine in the presence of 300 nM (+)pentazocine to measure displacement from Sigma-2 receptors.

[6] = target: Sigma-1 receptors on Jurkat cell membranes (Homo sapiens (Human), UniProt Q99720); assay: Competitive Radioligand Binding Assay 1, Sigma-1 binding ([3H](+)pentazocine displacement); conditions: sigma-1 receptor affinity; read-out: S1 Ki
Sequence of Sigma-1 receptors on Jurkat cell membranes (Q99720 whole entry): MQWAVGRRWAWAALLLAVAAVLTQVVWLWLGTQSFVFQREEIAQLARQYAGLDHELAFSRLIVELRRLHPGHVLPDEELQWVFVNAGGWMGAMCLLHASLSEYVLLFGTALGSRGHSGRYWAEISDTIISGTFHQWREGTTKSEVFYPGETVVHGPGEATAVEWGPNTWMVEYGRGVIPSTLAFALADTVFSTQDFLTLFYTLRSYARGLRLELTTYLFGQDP
Description: Certain compounds were tested for interaction with several receptors by blocking the binding or action of their agonists or antagonists. Some compounds were tested to see whether they interact directly with known cellular receptor or signaling proteins. Compounds can be tested for the ability to displace binding of known agonists or antagonists of a given human receptor that was overexpressed in cell lines or isolated from tissue. Compounds can also be tested for the ability to block downstream signaling induced by agonists or antagonists of a given human receptor. Compounds can be tested for action at 100 known receptors, and it is desirable that specific activity will occur at only a small subset of CNS-relevant receptors.
as §1, with “minute). […]” for “minute).”

[7] = Rattus norvegicus, Hippocampal neuron

SMILES	EC50 [1] [µM]	MLM T1/2 [2]	log P [3]	IC50 [4] [µM]	Ki [5] [µM]	Ki [6] [µM]	EC50 [1, 7] [µM]	logP [3]
CC(C)=CC(CC(C)(C)c1ccc(Cl)cc1)N1CCC(C2CCOCC2)CC1 (centres unmarked) [Compound 11]	3	26, min.	6.31	1.5	0.0022	–	–	–
CC(C)=CC(CCc1ccc(F)cc1)N1CCC(C2CCOCC2)CC1 (centres unmarked) [Compound 21]	20	11 min	5.26	0.83	0.0062	0.008	–	–
CC(C)=CC(CC(C)(C)c1ccc(C(F)(F)F)cc1)N1CCC(OC(C)C)CC1 (centres unmarked) [Compound 44]	1.4	–	6.27	9.2	0.079	0.26	–	–
CCOC1CCN(C(C=C(C)C)CC(C)(C)c2ccc(F)cc2)CC1 (centres unmarked) [Compound 59]	0.25	–	5.12	73	0.16	0.6	–	–
CC(=O)N1CCN(C(C=C(C)C)CC(C)(C)c2ccc(Cl)cc2)CC1 (centres unmarked) [Compound 75]	0.25	–	4.33	15	0.69	0.69	–	–
CC(C)=C[C@@H](CC(C)(C)c1ccc(C(F)(F)F)cc1)N1CCC[C@@H]1CO [Compound 83]	3.8	–	5.31	14	1	1	–	–
COC[C@H]1CCCN1C(C)CC(C)(C)c1ccc(Cl)cc1 (some centres unmarked) [Compound 84]	0.25	–	4.67	3.9	1	1	–	–
CC(C)=CC(CCc1ccc(C)cc1)N1CCOCC1 (centres unmarked) [Compound 93]	20	3.4 min	4.36	–	–	–	–	–
CC(C)=CC(CCc1ccc(C)cc1)N1CCCCC1 (centres unmarked) [Compound 94]	20	1.8 min	5.43	–	–	–	–	–
CC(C)=CC(CCc1ccc(Cl)cc1)N1CCOCC1 (centres unmarked) [Compound 95]	20	1.5 min	4.45	–	–	–	–	–
CC(C)=CC(CCc1ccc(Cl)cc1)N1CCCCC1 (centres unmarked) [Compound 96]	1.6	6.2 min	5.52	–	–	–	–	–
CC(C)=CC(CC(C)(C)c1ccc(C)cc1)N1CCC2(CCOCC2)CC1 (centres unmarked) [Compound 97]	10	8.7 min	5.78	–	–	–	–	–
COc1ccc(C(C)(C)CC(C=C(C)C)N2CCC3(CCOCC3)CC2)cc1 (centres unmarked) [Compound 98]	20	1.7 min	5.11	–	–	–	–	–
COc1ccc(C(C)(C)CC(C=C(C)C)NC2CCOCC2)cc1 (centres unmarked) [Compound 99]	20	7.4 min	4.08	–	–	–	–	–
CC(C)=CC(CC(C)(C)c1ccc(C)cc1)NC1CCOCC1 (centres unmarked) [Compound 100]	13.6	4.5 min	4.75	–	–	–	–	–
CC(C)=CC(CC(C)(C)c1ccc(C)cc1)NCCC1CCOCC1 (centres unmarked) [Compound 101]	9.6	1.8 min	5.57	–	–	–	–	–

SMILES	EC50 [1] [µM]	MLM T1/2 [2]	log P [3]	IC50 [4] [µM]	Ki [5] [µM]	Ki [6] [µM]	EC50 [1, 7] [µM]	logP [3]
COc1ccc(C(C)(C)CC(C=C(C)C)NCCC2CCOCC2)cc1 (centres unmarked) [Compound 102]	20	1.5 min	4.9	–	–	–	–	–
COc1ccc(CCC(C=C(C)C)N2CCCCC2)cc1 (centres unmarked) [Compound 103]	20	1.1 min	4.76	–	–	–	–	–
COc1ccc(CCC(C=C(C)C)N2CCOCC2)cc1 (centres unmarked) [Compound 104]	20	1.3 min	3.69	–	–	–	–	–
CC(C)=CC(CCc1ccc(Cl)cc1)N1CCC(C2CCOCC2)CC1 (centres unmarked) [Compound 105]	20	1.3 min	5.72	–	–	–	–	–
COc1ccc(C(C)(C)CC(C=C(C)C)NCCCC2CCOCC2)cc1 (centres unmarked) [Compound 106]	20	3.9 min	5.35	–	–	–	–	–
CC(C)=CC(CC(C)(C)c1ccc(C)cc1)N1CCC2(CC1)COC2 (centres unmarked) [Compound 107]	20	3.5 min	5.21	–	–	–	–	–
COc1ccc(C(C)(C)CC(C=C(C)C)N(C)C2CCOCC2)cc1 (centres unmarked) [Compound 108]	20	7.3 min	4.46	–	–	–	–	–
CC(C)=CC(CC(C)(C)c1ccc(C)cc1)N(C)C1CCOCC1 (centres unmarked) [Compound 109]	20	5.4 min	5.13	–	–	–	–	–
COc1ccc(C(C)(C)CC(C=C(C)C)N(C)CCCC2CCOCC2)cc1 (centres unmarked) [Compound 110]	20	2.6 min	5.73	–	–	–	–	–
CC(C)=CC(CC(C)(C)c1ccc(Cl)cc1)N(C)CC1CCOCC1 (centres unmarked) [Compound 111]	20	6.8 min	5.68	–	–	–	–	–
CC(C)=CC(CC(C)(C)c1ccc(C)cc1)N(C)CC1CCOCC1 (centres unmarked) [Compound 112]	–	4.9 min	5.59	–	–	–	–	–
COc1ccc(C(C)(C)CC(C=C(C)C)N(C)CC2CCOCC2)cc1 (centres unmarked) [Compound 113]	20	8.2 min	4.92	–	–	–	–	–
CC(C)=CC(CCc1ccc(C)cc1)N1CCC(C2CCOCC2)CC1 (centres unmarked) [Compound 114]	–	1.8 min	5.63	–	–	–	–	–
CC1(O)CCN(CCC(C)(C)c2ccc(C(F)(F)F)cc2)CC1 [Example 14]	–	–	–	18	0.003	0.0019	3.7	3.71
CC(C)(CCN1CCC(O)CC1)c1ccc(C(F)(F)F)cc1 [Example 17]	–	–	–	11	0.0051	0.0013	2.24	3.43

— patent US11214540B2, “Compositions for treating neurodegenerative diseases” (COGNITION THERAPEUTICS, INC., priority 2017, dated 2022)
